Values quoted from earlier work as cited in patent US20080171032A1, “DIETARY SUPPLEMENT COMPOSITION AND METHOD OF USE FOR THE TREATMENT AND PREVENTION OF OXIDATIVE STRESS” (priority 2007, published 2008).

Legend:
[1] = system: scleroderma; details: about 12 grams daily
[2] = system: dermatomyositis; details: two dermatomyositis patients, 15 to 20 grams daily
[3] = system: mitochondrial membranes
[4] = system: advanced glycation end-products (AGEs); details: 600 mg/day prior to blood draw
[5] = system: serum lipid oxidation products; details: human, tocotrienol supplementation at 40 mg/day, versus placebo
[6] = system: human fibroblasts

For `Nc1ccc(C(=O)[O-])cc1.[K+]` [POTABA, potassium para-aminobenzoate], the “patients with mild, moderate or marked skin softening” value ([1]; 224 scleroderma patients) is given as “Ninety”, the adverse events ([1]; scleroderma patients) is given as “no significant adverse events were reported” and the clinical improvement [2] is given as “Clinical improvement was noted”.
For `CC1=C(/C=C/C(C)=C/C=C/C(C)=C/C=C/C=C(C)/C=C/C=C(C)/C=C/C2=C(C)C(=O)[C@@H](O)CC2(C)C)C(C)(C)C[C@H](O)C1=O` [Astaxanthin], the “protection against oxygen-induced mitochondrial membrane damage” value [3] is given as “protection against oxygen-induced mitochondrial membrane damage”.
In the case of `C/C(=C(\CCOP(=O)(O)O)SC(=O)c1ccccc1)N(C=O)Cc1cnc(C)nc1N` [benfotiamine], the “AGE formation in the cells of test subjects” value [4] is listed as “significant decrease” and the “glycoxidation in the cells of test subjects” value [4] is listed as “significant decrease”.
For `Nc1ccc(C(=O)O)cc1` [PABA, 4-aminobenzoic acid], the solubility in water is given as “slight”.
For tocotrienol, the “lowering of serum lipid oxidation products” value [5] is given as “more effective in lowering serum lipid oxidation products than placebo”.
For `NCCC(=O)N[C@@H](Cc1cnc[nH]1)C(=O)O` [carnosine], the “effect on cells approaching senescence” value ([6]; human fibroblasts approaching senescence supplemented with carnosine) is listed as “markedly rejuvenated and their lifespan extended” and the “onset of cell senescence” value ([6]; human fibroblasts exposed to 50 mM carnosine) is listed as “reduction in onset of cell senescence”.
